# Measured values as given in ChEMBL document CHEMBL1201862, “PubChem BioAssay data set” (2004).
# Calls of active or inactive are those of the source.
# Tests used:
# [1] = system: Streptococcus sp. 'group A'; test: growth inhibition of control SK(-) GAS strain, dose response, counter-screen for streptokinase expression inhibitor project, luminescence, kanamycin, BacTiterGlo, confirmation (AID 1900); type: functional, organism-based
# [2] = C. albicans growth with fluconazole, confirmation, fluorescence, retest (AID 2467); type: functional, cell-based
# [3] = NIH-3T3 fibroblast cytotoxicity, dose response, cytotoxicity control, cell-based, fluorescence, Alamar Blue, secondary assay (AID 2327); type: functional;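 further: NIH-3T3 mouse fibroblasts cultured with fluconazole at 8 µg/mL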
# Albumin = Albumin (Bos taurus, UniProt P02769); test: Counterscreen for inhibitors of T-cell receptor (TCR)-CD3 interaction: Fluorescence-based biochemical high throughput dose response assay to identify inhibitors of T-cell receptor (TCR)-CD3 interaction using a TAMRA-labeled BSA probe.; type: functional
# [4] = target: T1, High affinity choline transporter 1 (Homo sapiens, UniProt Q9GZV3); test: CHT inhibitors, dose response, cell-based, 5-point CRC, membrane potential dye (AID 504840); type: functional
# T1 sequence (Q9GZV3 whole entry): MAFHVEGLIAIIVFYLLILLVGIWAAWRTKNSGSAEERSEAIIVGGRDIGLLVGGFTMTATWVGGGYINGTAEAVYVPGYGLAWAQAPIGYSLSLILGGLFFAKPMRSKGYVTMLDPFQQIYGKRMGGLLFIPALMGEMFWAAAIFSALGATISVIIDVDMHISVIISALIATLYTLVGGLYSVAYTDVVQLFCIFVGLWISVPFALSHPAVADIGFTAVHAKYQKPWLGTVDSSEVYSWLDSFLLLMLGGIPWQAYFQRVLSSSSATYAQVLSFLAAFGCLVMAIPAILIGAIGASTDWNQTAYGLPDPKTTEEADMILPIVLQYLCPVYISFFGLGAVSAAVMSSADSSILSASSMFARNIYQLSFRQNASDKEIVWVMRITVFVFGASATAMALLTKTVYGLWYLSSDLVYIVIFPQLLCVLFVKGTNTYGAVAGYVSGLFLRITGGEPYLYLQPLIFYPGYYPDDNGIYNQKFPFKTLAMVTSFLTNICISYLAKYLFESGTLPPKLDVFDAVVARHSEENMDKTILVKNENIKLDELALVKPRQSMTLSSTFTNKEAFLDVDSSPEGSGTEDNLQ
# Aminopeptidase N = target: T2, Aminopeptidase N (Plasmodium falciparum FcB1/Columbia, UniProt O96935); test: P. falciparum M1AAP inhibitors, biochemical, fluorogenic H-Leu-NHMec substrate, 1536-well (AID 1445); design: species or system Plasmodium falciparum 3D7, 3D7
# T2 sequence (O96935 whole entry): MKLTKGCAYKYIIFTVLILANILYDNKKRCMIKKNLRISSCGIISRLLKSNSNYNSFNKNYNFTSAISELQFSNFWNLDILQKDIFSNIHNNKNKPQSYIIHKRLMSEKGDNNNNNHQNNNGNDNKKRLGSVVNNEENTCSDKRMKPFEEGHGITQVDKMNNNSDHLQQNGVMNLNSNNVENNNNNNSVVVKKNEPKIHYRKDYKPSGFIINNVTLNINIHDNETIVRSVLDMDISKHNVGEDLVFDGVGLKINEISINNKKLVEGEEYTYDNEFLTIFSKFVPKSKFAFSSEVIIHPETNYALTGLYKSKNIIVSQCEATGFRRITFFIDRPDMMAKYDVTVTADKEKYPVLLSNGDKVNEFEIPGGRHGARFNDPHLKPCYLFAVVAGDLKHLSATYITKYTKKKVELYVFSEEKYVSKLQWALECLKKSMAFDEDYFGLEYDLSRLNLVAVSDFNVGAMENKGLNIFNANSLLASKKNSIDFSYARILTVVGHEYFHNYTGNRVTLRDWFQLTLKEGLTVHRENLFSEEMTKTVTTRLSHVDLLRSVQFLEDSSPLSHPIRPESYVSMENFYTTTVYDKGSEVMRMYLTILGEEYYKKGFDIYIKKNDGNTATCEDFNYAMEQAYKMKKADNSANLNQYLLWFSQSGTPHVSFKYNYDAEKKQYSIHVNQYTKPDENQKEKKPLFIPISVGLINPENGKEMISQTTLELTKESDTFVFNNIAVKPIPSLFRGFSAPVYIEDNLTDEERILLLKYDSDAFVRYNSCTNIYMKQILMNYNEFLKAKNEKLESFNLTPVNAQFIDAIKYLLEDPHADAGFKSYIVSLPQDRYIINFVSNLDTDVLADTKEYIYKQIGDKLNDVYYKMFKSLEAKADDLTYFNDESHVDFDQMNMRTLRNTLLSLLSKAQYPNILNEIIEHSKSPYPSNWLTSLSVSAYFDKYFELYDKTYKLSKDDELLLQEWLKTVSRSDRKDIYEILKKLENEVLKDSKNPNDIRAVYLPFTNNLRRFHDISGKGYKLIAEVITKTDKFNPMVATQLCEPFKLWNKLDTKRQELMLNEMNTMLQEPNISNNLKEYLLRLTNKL
# [5] = target: T3, Long-chain-fatty-acid--AMP ligase FadD28 (Mycobacterium tuberculosis, UniProt P9WQ59); test: Fluorescence polarization aasay to screen for inhibitors that compete for the binding of FadD28 to a bisubstrate Measured in Biochemical System Using Plate Reader - 2147-01_Inhibitor_Dose_CherryPick_Activity.; type: functional, Mycobacterium tuberculosis H37Rv
# T3 sequence (P9WQ59 whole entry): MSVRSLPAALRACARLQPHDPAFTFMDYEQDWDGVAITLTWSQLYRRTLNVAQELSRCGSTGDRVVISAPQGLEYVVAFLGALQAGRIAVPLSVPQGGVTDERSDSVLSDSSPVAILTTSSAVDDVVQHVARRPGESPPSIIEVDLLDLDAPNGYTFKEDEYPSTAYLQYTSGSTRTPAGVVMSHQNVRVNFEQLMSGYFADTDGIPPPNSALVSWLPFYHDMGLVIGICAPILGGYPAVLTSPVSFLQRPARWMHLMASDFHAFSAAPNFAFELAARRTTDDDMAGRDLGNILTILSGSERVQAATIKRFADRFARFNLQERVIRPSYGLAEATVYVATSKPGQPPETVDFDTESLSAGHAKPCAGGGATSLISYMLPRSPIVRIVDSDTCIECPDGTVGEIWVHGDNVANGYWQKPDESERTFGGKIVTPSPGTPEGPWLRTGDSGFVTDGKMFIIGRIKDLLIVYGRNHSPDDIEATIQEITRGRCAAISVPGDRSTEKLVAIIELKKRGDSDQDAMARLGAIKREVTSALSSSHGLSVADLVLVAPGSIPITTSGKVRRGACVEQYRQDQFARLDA
# Streptococcus = test: Group A Streptococcus viability loss, dose response, counter-screen for streptokinase expression inhibitor project, luminescence, BacTiterGlo (AID 1915); type: functional, organism-based;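 further: potency for reduction of bacterial viability or growth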
# [6] = target: Eukaryotic translation initiation factor 4E (Mus musculus, UniProt P63073); test: eIF4E–eIF4G protein interaction inhibitors, dose response, biochemical, TR-FRET (AID 855); type: functional;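 further: potency for disrupting eIF4E binding to eIF4GI seen as loss of FRET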
# Streptokinase A = target: T4, Streptokinase A (Streptococcus pyogenes serotype M1, UniProt P10520); test: S. pyogenes streptokinase expression inhibitors, potency, dose response, plasminogen activation absorbance, OD405 (AID 1914); type: functional, Streptococcus pyogenes M1 GAS;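 further: secreted streptokinase activity via plasminogen activation per viability signal from cell pellet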
# T4 sequence (P10520 whole entry): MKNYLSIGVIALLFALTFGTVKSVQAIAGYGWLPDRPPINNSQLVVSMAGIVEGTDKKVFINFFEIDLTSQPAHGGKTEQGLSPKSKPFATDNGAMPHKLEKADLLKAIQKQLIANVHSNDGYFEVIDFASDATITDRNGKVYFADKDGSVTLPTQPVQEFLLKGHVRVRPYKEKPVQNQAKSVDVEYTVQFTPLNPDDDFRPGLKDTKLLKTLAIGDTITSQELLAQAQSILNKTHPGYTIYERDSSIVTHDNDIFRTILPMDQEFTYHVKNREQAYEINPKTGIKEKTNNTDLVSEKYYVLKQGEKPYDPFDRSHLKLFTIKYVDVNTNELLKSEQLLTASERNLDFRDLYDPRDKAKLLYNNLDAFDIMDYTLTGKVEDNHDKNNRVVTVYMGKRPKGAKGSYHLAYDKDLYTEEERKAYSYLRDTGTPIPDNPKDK
# [7] = target: T5, Ubiquitin-conjugating enzyme E2 N (Homo sapiens, UniProt P61088); type: functional;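 further: Dose-response confirmation in a TR-FRET assay detecting UBC13-driven polyubiquitin chain formation, inhibition measured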
# T5 sequence (P61088 whole entry): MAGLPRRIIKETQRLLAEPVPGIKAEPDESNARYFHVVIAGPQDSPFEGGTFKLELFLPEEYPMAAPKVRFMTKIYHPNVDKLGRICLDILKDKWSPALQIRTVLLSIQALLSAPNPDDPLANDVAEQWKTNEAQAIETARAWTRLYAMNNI
# [8] = target: T6, Heat shock factor protein 1 (Mus musculus, UniProt P38532); test: HSF1 potentiators in luciferase reporter cells, confirmation, cell-based, NIH3T3, luminescence, dose retest (AID 435004); type: functional;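 further: stress induced by proteasome inhibitor MG132 added 30 min after compound; luciferase reporter driven by HSF1 response element in NIH3T3 cells; actives raise luminescence as potentiators of the MG132 stress response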
# T6 sequence (P38532 whole entry): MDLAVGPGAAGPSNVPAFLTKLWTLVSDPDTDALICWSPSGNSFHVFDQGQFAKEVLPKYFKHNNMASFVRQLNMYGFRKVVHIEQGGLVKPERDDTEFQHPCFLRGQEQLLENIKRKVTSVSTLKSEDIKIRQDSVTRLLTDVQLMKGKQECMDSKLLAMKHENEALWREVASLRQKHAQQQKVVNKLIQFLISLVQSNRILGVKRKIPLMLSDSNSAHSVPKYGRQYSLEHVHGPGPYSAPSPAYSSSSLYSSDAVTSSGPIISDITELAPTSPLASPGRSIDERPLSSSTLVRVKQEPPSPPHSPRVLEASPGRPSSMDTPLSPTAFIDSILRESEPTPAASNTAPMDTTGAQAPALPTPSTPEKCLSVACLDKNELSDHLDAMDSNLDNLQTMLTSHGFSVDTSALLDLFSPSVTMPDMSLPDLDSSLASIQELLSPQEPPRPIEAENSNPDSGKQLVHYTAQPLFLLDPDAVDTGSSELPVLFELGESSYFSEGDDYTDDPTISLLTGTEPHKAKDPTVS
# [9] = inhibitors of intracellular T. cruzi replication, confirmation, NIH3T3 host cells, beta-gal luminescence (AID 2044); type: functional, cell-based;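 further: intracellular parasites grown in NIH/3T3 mouse fibroblasts as host cells; luminescent beta-galactosidase reporter signal from transgenic T. cruzi replicating inside host cells; inhibitors lower the luminescence signal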
# [10] = Luminescence Cell-Based Dose Response HTS to Identify Inhibitors of 5'UTR Stem-Loop Driven Prion Protein mRNA Translation in H4 Neuroglioblastoma Cells. [Related pubchem assays: 1827 (Project Summary), 1813 (Primary HTS)]; type: functional
# [11] = inhibitors of firefly luciferase expression or activity, dose response, H4 neuroglioma cells, luminescence (AID 1990); type: functional, cell-based
# [12] = inhibitors of SNCA 5'UTR-driven reporter translation, confirmation, H4 neuroglioma cells, luminescence (AID 1988); type: functional, cell-based
# INS1 = test: beta cell apoptosis inhibitors, cytokine rescue, dose response, luminescence, retest (AID 449756); type: functional, cell-based; details: Rattus norvegicus;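 further: cell death triggered by IL-1 beta plus TNF-alpha plus IFN-gamma mixture; protective hits raise ATP signal compared with cytokine alone wells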
# [13] = non-specific cell cytotoxicity, dose response, cytotoxicity control for PAX8 inhibitor project, plate reader, dry powder samples (AID 743021); type: functional, cell-based
# Paired box protein Pax-8 = Paired box protein Pax-8 (Homo sapiens, UniProt Q06710); test: inhibitors of PAX8-driven TPO luciferase reporter, dose response, RMG-I cells, cherry-pick (AID 687027); type: functional, cell-based;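 further: luciferase reporter driven by Pax8 target thyroperoxidase promoter measured by SteadyGlo luminescence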
# [14] = cytotoxicity toward NIH3T3 fibroblasts, dose response, counter-screen, cell-based, ATP luminescence, mouse fibroblasts (AID 2010); type: functional;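 further: cells exposed to compound for about 90 hours before reading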
# Genome polyprotein = Genome polyprotein (dengue virus type 2, UniProt P29990); test: Dengue-2 NS5 methyltransferase inhibitors, primary screen, biochemical, confirmation dose response (AID 588689); type: functional
# [15] = target: T7, Mannose-6-phosphate isomerase (Homo sapiens, UniProt P34949); test: human PMI inhibitors, high substrate, primary screen, biochemical, fluorescence intensity, high mannose 6-phosphate (AID 1220)
# T7 sequence (P34949 whole entry): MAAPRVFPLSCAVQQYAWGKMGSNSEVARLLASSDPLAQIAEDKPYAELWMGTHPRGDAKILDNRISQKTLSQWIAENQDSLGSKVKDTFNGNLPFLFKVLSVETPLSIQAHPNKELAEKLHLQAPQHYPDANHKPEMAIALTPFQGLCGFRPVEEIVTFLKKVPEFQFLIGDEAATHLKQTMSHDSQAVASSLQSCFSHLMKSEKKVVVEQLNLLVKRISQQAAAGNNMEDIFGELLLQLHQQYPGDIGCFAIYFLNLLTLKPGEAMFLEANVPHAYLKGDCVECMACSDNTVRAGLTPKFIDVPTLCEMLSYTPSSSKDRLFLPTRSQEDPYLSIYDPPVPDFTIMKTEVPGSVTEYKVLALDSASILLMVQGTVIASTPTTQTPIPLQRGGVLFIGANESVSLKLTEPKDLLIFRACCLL
# Caspase-6 = target: T8, Caspase-6 (Homo sapiens, UniProt P55212); test: human caspase-6 inhibitors, dose response, biochemical, VEID-R110 fluorescence, cherry-pick (AID 720632)
# T8 sequence (P55212 whole entry): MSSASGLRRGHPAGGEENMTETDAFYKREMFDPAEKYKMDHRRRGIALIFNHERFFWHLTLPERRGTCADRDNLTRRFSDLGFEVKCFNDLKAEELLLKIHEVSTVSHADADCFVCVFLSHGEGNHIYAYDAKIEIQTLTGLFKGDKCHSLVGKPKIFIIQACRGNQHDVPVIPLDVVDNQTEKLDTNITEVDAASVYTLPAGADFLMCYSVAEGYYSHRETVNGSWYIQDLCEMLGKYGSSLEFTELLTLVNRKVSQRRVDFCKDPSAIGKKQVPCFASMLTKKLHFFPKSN
# [16] = target: Induced myeloid leukemia cell differentiation protein Mcl-1 (Homo sapiens, UniProt Q07820); type: functional
# Chain of Induced myeloid leukemia cell differentiation protein Mcl-1 (Q07820 whole entry): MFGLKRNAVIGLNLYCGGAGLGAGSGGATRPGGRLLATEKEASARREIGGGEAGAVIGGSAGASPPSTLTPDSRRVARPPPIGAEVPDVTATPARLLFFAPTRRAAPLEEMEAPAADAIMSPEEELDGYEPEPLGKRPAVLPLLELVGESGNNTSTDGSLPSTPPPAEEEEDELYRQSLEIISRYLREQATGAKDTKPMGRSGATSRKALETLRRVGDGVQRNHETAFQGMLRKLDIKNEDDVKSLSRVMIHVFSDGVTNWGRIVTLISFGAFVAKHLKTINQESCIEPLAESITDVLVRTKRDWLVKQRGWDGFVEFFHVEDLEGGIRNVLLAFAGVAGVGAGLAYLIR
# Chain of Albumin (P02769 whole entry): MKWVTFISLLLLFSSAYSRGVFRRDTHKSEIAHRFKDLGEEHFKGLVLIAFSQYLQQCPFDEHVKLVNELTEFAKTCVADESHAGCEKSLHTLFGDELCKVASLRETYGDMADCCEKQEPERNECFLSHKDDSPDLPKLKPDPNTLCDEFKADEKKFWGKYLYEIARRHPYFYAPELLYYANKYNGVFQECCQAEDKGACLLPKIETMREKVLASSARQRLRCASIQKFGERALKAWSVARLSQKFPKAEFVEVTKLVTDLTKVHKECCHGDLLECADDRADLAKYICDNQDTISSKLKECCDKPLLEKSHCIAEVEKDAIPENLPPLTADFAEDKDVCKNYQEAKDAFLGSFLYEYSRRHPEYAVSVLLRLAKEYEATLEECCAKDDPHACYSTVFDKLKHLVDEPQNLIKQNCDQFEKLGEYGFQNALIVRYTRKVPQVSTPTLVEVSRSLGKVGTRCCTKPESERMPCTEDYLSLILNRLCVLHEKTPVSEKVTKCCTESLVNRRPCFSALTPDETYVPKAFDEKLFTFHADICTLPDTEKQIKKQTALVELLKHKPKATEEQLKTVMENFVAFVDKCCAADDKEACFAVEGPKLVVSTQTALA
# Chain of Paired box protein Pax-8 (Q06710 whole entry): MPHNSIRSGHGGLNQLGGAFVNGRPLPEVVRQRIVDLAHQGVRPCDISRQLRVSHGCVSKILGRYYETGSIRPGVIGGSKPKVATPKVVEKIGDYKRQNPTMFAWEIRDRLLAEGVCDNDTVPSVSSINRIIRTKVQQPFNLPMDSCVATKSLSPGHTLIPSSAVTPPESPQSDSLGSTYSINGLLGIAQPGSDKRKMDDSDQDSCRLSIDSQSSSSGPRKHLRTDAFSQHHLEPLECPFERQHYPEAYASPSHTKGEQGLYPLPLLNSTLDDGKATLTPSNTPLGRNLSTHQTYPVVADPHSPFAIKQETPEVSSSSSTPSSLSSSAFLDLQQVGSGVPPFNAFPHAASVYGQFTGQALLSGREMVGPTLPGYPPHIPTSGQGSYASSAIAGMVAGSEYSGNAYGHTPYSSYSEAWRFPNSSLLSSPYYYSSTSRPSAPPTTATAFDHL
# Chain of Eukaryotic translation initiation factor 4E (P63073 whole entry): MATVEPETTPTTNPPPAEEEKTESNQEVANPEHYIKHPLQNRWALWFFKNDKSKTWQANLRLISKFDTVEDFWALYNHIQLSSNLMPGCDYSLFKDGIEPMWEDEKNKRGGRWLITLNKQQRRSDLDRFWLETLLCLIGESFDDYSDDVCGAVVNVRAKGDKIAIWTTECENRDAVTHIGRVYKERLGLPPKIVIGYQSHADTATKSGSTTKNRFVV
# Chain of Genome polyprotein (P29990 2492-3391 limits assumed): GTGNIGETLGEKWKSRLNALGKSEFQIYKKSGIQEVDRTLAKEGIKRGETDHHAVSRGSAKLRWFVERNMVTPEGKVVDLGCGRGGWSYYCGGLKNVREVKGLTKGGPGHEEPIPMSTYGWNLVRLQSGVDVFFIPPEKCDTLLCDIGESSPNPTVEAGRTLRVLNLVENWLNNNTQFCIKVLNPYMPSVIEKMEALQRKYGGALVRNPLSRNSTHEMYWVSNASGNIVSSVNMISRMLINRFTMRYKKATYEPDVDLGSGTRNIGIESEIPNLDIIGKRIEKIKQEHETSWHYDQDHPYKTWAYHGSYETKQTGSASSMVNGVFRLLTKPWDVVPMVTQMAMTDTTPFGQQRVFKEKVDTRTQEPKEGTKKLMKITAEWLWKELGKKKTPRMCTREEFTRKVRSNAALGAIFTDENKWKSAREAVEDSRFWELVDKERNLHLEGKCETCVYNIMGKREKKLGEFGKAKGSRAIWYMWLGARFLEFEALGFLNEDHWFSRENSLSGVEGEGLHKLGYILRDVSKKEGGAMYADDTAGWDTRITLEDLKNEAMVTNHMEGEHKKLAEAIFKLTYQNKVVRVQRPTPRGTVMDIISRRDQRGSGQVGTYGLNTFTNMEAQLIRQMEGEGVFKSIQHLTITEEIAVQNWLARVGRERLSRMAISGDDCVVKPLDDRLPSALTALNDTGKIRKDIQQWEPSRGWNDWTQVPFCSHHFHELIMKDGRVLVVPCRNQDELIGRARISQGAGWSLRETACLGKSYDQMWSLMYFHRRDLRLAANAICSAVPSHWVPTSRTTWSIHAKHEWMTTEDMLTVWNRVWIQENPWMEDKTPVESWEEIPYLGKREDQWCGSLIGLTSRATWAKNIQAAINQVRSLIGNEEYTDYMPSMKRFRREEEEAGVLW
compound,measurement,setting,value
O=[N+]([O-])c1cc(Br)c(O)c(/C=N/Nc2nnnn2-c2cccc3ccccc23)c1,EC50,[1],3.69 µM (active)
same,EC50,[2],> 38 µM (not active)
same,EC50,[3],> 150 µM (inconclusive)
same,IC50,Albumin,> 94.1 µM (inactive)
same,IC50,[4],30.2 µM (active)
same,IC50,Aminopeptidase N,6.79 µM (active)
same,AC50,[5],15.6 µM (active)
same,EC50,Streptococcus,> 150 µM (not active)
same,IC50,[6],> 64 µM (inactive)
same,EC50,Streptokinase A,> 150 µM (not active)
COc1ccc(/C=N/Nc2cc(C)nc3ccc(Br)cc23)cc1,IC50,[7],> 20 µM (inactive)
same,EC50,[8],> 260 µM (inactive)
same,EC50,[9],1.55 µM (active)
same,EC50,[10],8.17 µM (active)
same,EC50,[11],> 120 µM (not active)
same,EC50,[12],7.61 µM (active)
same,AC50,INS1,5.79 µM (active)
same,AC50,[13],26.8 µM (active)
same,AC50,Paired box protein Pax-8,8.78 µM (active)
same,EC50,[14],8.92 µM (active)
O=C(CCN1CCN(c2ccccc2)CC1)N/N=C/c1ccc(O)c(O)c1O,EC50,[2],3.04 µM (active)
same,EC50,[3],> 150 µM (inactive)
same,IC50,Albumin,> 94.1 µM (inactive)
same,IC50,Genome polyprotein,30.1 µM (active)
same,IC50,[15],> 50 µM (not active)
same,AC50,Caspase-6,1.11 µM (active)
same,IC50,[16],6.59 µM (active)
